# According to patent publication US20250228984A1, “Metallophore-Radionuclide Complex as Nuclear Imaging Contrast Agents” (priority 2024, published 2025):
# What was measured:
# [1] = Radio chromatogram stability of gallium bound Pch in serum; assay type: in vitro ADME
# [2] = test system: fptA expressing P. aeruginosa; test: PET/CT imaging and ex vivo biodistribution of Ga-68 pyochelin, P. aeruginosa; assay type: in vivo, Pseudomonas aeruginosa; conditions: mice, bacteria intranasally, probe retro-orbitally ~150-200uCi, PET/CT 1 hour after injection
# Description: (§1) An additional in vivo study was performed using only PA01 bacteria. In this example, the bacteria were administered via intra-tracheal route, rather than intra-nasal. This route of administration is limited to 20 uL. Similarly, Ga-68 pyochelin studies were performed as follows: on day 1, PA01 was grown overnight to a concentration of ˜3×10^6 CFU/mL. After overnight incubation, the bacteria was washed with PBS and 100 uL was administered intranasally to each mouse. 5 hours after bacterial administration, Ga-68 was prepared and given retro-orbitally at a dose of ˜150-200uCi per mouse. 1 hour after Ga-68 injection, the mice were imaged via PET/CT, followed by euthanasia for biodistribution of the lungs.
# [3] = test system: non-fptA expressing organisms; test: PET/CT imaging and ex vivo biodistribution of Ga-68 pyochelin, non-fptA organisms; assay type: in vivo; conditions: mice with non-fptA expressing organisms
# [4] = HPLC stability of Cu-64-Pch after incubation in serum; assay type: in vitro ADME; conditions: after 24 hours of serum incubation
# Description: Preliminary in vitro data evaluating multiple siderophores with multiple radiometals to understand general binding characteristics was performed. To further evaluate Cu-64 binding affinity with Pch for in vivo applications, in vitro HPLC stability studies were performed to determine the percentage of bound Cu-64-Pch after incubation in serum. Samples were incubated for time points 0, 0.5, 1, 6, and 24. After incubation, samples were prepared for HPLC analysis by adding ˜500 uL of ammonium acetate with ethanol extraction solvent, spun at 12,000 RPM for 5 minutes. The top ⅔ of the supernatant was removed for HPLC analysis. After HPLC stability analysis, multiple HPLC purity studies were performed to determine the relative amount of free copper compared to Pch-bound copper. To prepare for purity analysis, ˜150 uCi of Cu-64 was incubated for 1 hour with varying amounts of 1 mg/mL pyochelin ranging from 0.5 to 10 uL, with ammonium acetate being added to reach a maximum volume of 350 uL. Additional purity studies were conducted using ˜150 uCi of Cu-64 along with 10 uL of 1 mg/mL pyochelin and ammonium acetate, but involved varying incubation periods consisting of 10, 20, 30, 45, and 60 minutes at 37° C. […]
# [5] = test system: non-fptA expressing organisms; test: PET/CT imaging and lung biodistribution of Cu-64 Pch in infected mice, non-fptA organisms; assay type: in vivo
# Description: (§2) In vivo studies were performed using Balb/c mice. On day 1, Pseudomonas aeruginosa (PA01), Klebsiella pneumoniae, E. coli Nissle, E. coli UTI89, or Staphylococcus aureus bacterial concentrations of ˜3×10^6 CFU/mL were prepared via centrifugation at 7 k RPM and washed three times with 1 mL of phosphate-buffered saline (PBS). 100 uL of bacterial concentrates were administered to groups of 3 mice intra-nasally, along with one group receiving 0.9% saline. After 24 hours, Cu-64 Pch was prepared and given retro-orbitally at a dose of ˜150 uCi per mouse. 48 hours after bacterial administration, the mice underwent PET/CT imaging. Immediately after imaging, the mice were sacked, and the lungs harvested for radioactive biodistribution measurements.
# [6] = test system: fptA expressing P. aeruginosa; test: PET/CT imaging and lung biodistribution of Cu-64 Pch in infected mice, P. aeruginosa; assay type: in vivo, Pseudomonas aeruginosa
# Description: as §2, §1
# [7] = iTLC and HPLC characterization of DFO complexes, 68Ga; assay type: physicochemical; conditions: for DFO complex, pH 3 / DFO complex, pH 5.5: 68Ga, 37° C.
# Description: (§3) Extensive HPLC and thin-layer chromatography (TLC) analysis of multiple radiometals with pyochelin or DFO were performed. Radiometals were combined with siderophore at ratio of 20 uCi/ug in 50 uL buffer. Buffers consisted of sodium acetate (NaOAc), ammonium acetate, and HEPES at pH 3.5, 5.5, and 7 respectively. Complexation was heated to either 37° C. for one hour or 50° C. for one hour. Gallium-68 was prepared by concentrating the generator eluate in 0.1 M HCl onto a 30 mg Strata-XC cartridge, which was then air dried and the gallium eluted with three 150 uL aliquots of acetone. Reactions with gallium-68 were then carried out by adding 5 μg of siderophore with 50 uL of pH 3.5 sodium acetate and ˜250 uCi of gallium-68 radiometal and incubated at 37° C. for 20 minutes. Reaction products were placed on HPLC at 5-50% acetonitrile for 15 minutes using a kinetex evo C-18 column.
# [8] = iTLC and HPLC characterization of DFO complexes, 64Cu; assay type: physicochemical; conditions: 37° C.
# Description: as §3
# [9] = test system: FoxA expressing P. aeruginosa; test: PET/CT imaging and ex vivo biodistribution of Ga-68 DFO, P. aeruginosa; assay type: in vivo, Pseudomonas aeruginosa
# [10] = test system: non-FoxA expressing organisms; test: PET/CT imaging and ex vivo biodistribution of Ga-68 DFO, non-FoxA organisms; assay type: in vivo
# [11] = TLC analysis of pyochelin complexation with titanium-45; assay type: physicochemical
# Description: (§4) All radiometals-pyochelin combinations were screened at pH 3.5, 5.5, and 7 at both 37° C. and 50° C. […] (FIG. 4F).
# as §3
# [12] = TLC analysis of pyochelin complexation with lead-203; assay type: physicochemical
# Description: as §4, §3
# [13] = Preliminary screen of Cu-64 with different siderophores (complexation); assay type: physicochemical; conditions: for Cu-64 screen with siderophore, pH 3 / Cu-64 screen with siderophore, pH 5.5 / Cu-64 screen with siderophore, pH 7.0 / Cu-64 screen with siderophore, pH 9: 64Cu
# Description: Preliminary in vitro data evaluating multiple siderophores with multiple radiometals to understand general binding characteristics was performed. To further evaluate Cu-64 binding affinity with Pch for in vivo applications, in vitro HPLC stability studies were performed to determine the percentage of bound Cu-64-Pch after incubation in serum. Samples were incubated for time points 0, 0.5, 1, 6, and 24. After incubation, samples were prepared for HPLC analysis by adding 500 uL of ammonium acetate with ethanol extraction solvent, spun at 12,000 RPM for 5 minutes. The top 2⁄3 of the supernatant was removed for HPLC analysis. After HPLC stability analysis, multiple HPLC purity studies were performed to determine the relative amount of free copper compared to Pch-bound copper. To prepare for purity analysis, 150 uCi of Cu-64 was incubated for 1 hour with varying amounts of 1 mg/mL pyochelin ranging from 0.5 to 10 uL, with ammonium acetate being added to reach a maximum volume of 350 uL. Additional purity studies were conducted using 150 uCi of Cu-64 along with 10 uL of 1 mg/mL pyochelin and ammonium acetate, but involved varying incubation periods consisting of 10, 20, 30, 45, and 60 minutes at 37° C. Lastly, UV chromatograms of Pch were generated using varying concentrations of Pch in ammonium acetate, consisting of 25, 50, 100, and 200 uL of Pch with ammonium acetate being added to reach 350 uL total volume. All HPLC analysis was conducted using 5-95% acetonitrile gradient over 10 minutes, with a flow rate of 1 mL/min using an Agilent Poroshell 120 EC-C18 column. Extensive HPLC and thin-layer chromatography (TLC) analysis of multiple radiometals with pyochelin or DFO were performed. Radiometals were combined with siderophore at ratio of 20 uCi/ug in 50 uL buffer. Buffers consisted of sodium acetate (NaOAc), ammonium acetate, and HEPES at pH 3.5, 5.5, and 7 respectively. […] Gallium-68 was prepared by concentrating the generator eluate in 0.1 M HCl onto a 30 mg Strata-XC cartridge, which was then air dried and the gallium eluted with three 150 uL aliquots of acetone. Reactions with gallium-68 were then carried out by adding 5 μg of siderophore with 50 uL of pH 3.5 sodium acetate and 250 uCi of gallium-68 radiometal and incubated at 37° C. for 20 minutes. Reaction products were placed on HPLC at 5-50% acetonitrile for 15 minutes using a […] evo C-18 column.
# [14] = TLC analysis of pyochelin complexation with manganese-52; assay type: physicochemical
# Description: as §4, §3
# [15] = TLC analysis of pyochelin complexation with zirconium-89; assay type: physicochemical
# Description: as §4, §3
# [16] = TLC analysis of pyochelin complexation with gallium-68; assay type: physicochemical
# Description: as §4, §3
# [17] = pH 3.5, 5.5, 7, 37° C. and 50° C.
compound,measurement,setting,value
gallium-68 bound pyochelin [Ga-68 Pch],stability in serum (radio chromatogram),[1],high stability in serum
same,uptake of probe in the lungs (in vivo imaging and ex vivo biodistribution),[2],increased uptake
same,uptake of probe in the lungs (in vivo imaging and ex vivo biodistribution),[3],limited uptake
copper-64 bound pyochelin [Cu-64-Pch],stability after serum incubation (HPLC),[4],≥ 91%
same,uptake of probe in the lungs (imaging and radioactive biodistribution),"[5]; Balb/c mice infected with non-fptA expressing organisms, probe retro-orbitally ~150 uCi",limited uptake
same,transport of probe into bacterial cells (in vivo images),[5]; bacterial cells that don't express the fptA receptor,not transported
same,uptake of probe in the lungs (imaging and radioactive biodistribution),"[6]; Balb/c mice, bacteria intra-nasally, probe retro-orbitally ~150 uCi, PET/CT 48 hours after bacteria",increased uptake
same,transport of probe into bacterial cells (in vivo images),[6]; P. aeruginosa cells,transported into the P. aeruginosa cells
same,biodistribution levels in lungs,[6]; P. aeruginosa containing lungs,elevated levels
same,"biodistribution and probe accumulation, intra-tracheal compared to intra-nasal bacterial administration",[6]; PA01 administered intra-tracheally vs intra-nasally,significant increase in biodistribution and probe accumulation
"CC(=O)N(O)CCCCCNC(=O)CCC(=O)N(O)CCCCCNC(=O)CCC(=O)N(O)CCCCCN [DFO, desferrioxamine B]","DFO complex, pH 3",[7]; 20 mins,93
same,"DFO complex, pH 5.5",[7]; 20 mins,62
same,"DFO complex, pH 3",[7]; 60 mins,92
same,"DFO complex, pH 5.5",[7]; 60 mins,98
same,"complexation between Ga-68 and DFO, in words","[7]; pH 3 and pH 5.5, 37° C.",high complexation
same,"DFO complex, pH 3",[8]; 20 mins,1
same,"DFO complex, pH 5.5",[8]; 20 mins,4
same,"DFO complex, pH 3",[8]; 60 mins,1
same,"DFO complex, pH 5.5",[8]; 60 mins,1
"CC(=O)N([O-])CCCCCNC(=O)CCC(=O)N([O-])CCCCCNC(=O)CCC(=O)N([O-])CCCCCN.[68Ga+3] [Ga-68 DFO, gallium-68 bound DFO]",uptake of probe in the lungs (in vivo imaging and ex vivo biodistribution),[9],increased uptake
same,uptake of probe in the lungs (in vivo imaging and ex vivo biodistribution),[10],limited uptake
"CN1[C@@H]([C@H]2CSC(c3ccccc3O)=N2)SC[C@H]1C(=O)O [PcH, pyochelin]",pH 3.5 (% complex),"[11]; Titanium-45, pH 3.5, 37° C.",33.1 % complex
same,pH 5.5 (% complex),"[11]; Titanium-45, pH 5.5, 37° C.",72.3 % complex
same,pH 7 (% complex),"[11]; Titanium-45, pH 7, 37° C.",60 % complex
same,association between pyochelin and titanium-45 (TLC),[11]; [17],mostly poor association
same,pH 3.5 (% complex),"[12]; Lead-203, pH 3.5, 37° C.",3 % complex
same,pH 5.5 (% complex),"[12]; Lead-203, pH 5.5, 37° C.",3 % complex
same,pH 7 (% complex),"[12]; Lead-203, pH 7, 37° C.",2 % complex
same,association between pyochelin and lead-203 (TLC),[12]; [17],mostly poor association
same,"Cu-64 screen with siderophore, pH 3","[13]; 37° C., 60 mins",0
same,"Cu-64 screen with siderophore, pH 5.5","[13]; 37° C., 60 mins",85
same,"Cu-64 screen with siderophore, pH 7.0","[13]; 37° C., 60 mins",95
same,"Cu-64 screen with siderophore, pH 9","[13]; 37° C., 60 mins",0
same,"Cu-64 screen with siderophore, pH 3","[13]; 90° C., 30 mins",0
same,"Cu-64 screen with siderophore, pH 5.5","[13]; 90° C., 30 mins",0
same,"Cu-64 screen with siderophore, pH 7.0","[13]; 90° C., 30 mins",0
same,"Cu-64 screen with siderophore, pH 9","[13]; 90° C., 30 mins",0
same,"complexation of pyochelin with copper-64, in words",[13]; in vitro studies,complexes extremely well
same,binding affinity between Cu-64 and PcH,"[13]; pH 5.5 and pH 7, 37° C.",high binding affinity
same,pH 3.5 (% complex),"[14]; Manganese-52, pH 3.5, 37° C.",1.2 % complex
same,pH 5.5 (% complex),"[14]; Manganese-52, pH 5.5, 37° C.",2.2 % complex
same,pH 7 (% complex),"[14]; Manganese-52, pH 7, 37° C.",1.1 % complex
same,association between pyochelin and manganese-52 (TLC),[14]; [17],mostly poor association
same,pH 3.5 (% complex),"[15]; Zirconium-89, pH 3.5, 37° C.",22.8 % complex
same,pH 5.5 (% complex),"[15]; Zirconium-89, pH 5.5, 37° C.",73.7 % complex
same,pH 7 (% complex),"[15]; Zirconium-89, pH 7, 37° C.",75.6 % complex
same,association between pyochelin and zirconium-89 (TLC),[15]; [17],mostly poor association
same,pH 3.5 (% complex),"[16]; Gallium-68, pH 3.5, 37° C.",100 % complex
same,pH 5.5 (% complex),"[16]; Gallium-68, pH 5.5, 37° C.",100 % complex
same,pH 7 (% complex),"[16]; Gallium-68, pH 7, 37° C.",100 % complex
same,complexation of gallium-68 with pyochelin,"[16]; all three pH conditions (3.5, 5.5, 7) at 37° C.",100%
